From patent US20110124724A1, “USE OF DRONEDARONE OR A PHARMACEUTICALLY ACCEPTABLE SALT THEREOF, FOR THE PREPARATION OF A MEDICAMENT FOR REGULATING THE POTASIUM LEVEL IN THE BLOOD” (SANOFI-AVENTIS, priority 2008, published 2011)
Where a name gives a salt, the structure may show the parent alone.

Test: Prospective, multinational, multicentre, double-blind, placebo-controlled clinical study in patients with a history of atrial fibrillation or atrial flutter
Assay type: in vivo
Description: The patients had to have a history of atrial fibrillation or flutter and/or could be in normal sinus rhythm or in atrial fibrillation or flutter at inclusion.
The patient recruitment was carried out by taking into account the following inclusion criteria:
Inclusion Criteria: • 1) One of the following risk factors had to be present: • age equal to or above 70, or even above 75, possibly combined with at least one of the risk factors below: • hypertension (taking antihypertensives of at least two different classes), • diabetes, • history of cerebral stroke (transient ischemic event or completed cerebral stroke) or of systemic embolism, • left atrial diameter greater than or equal to 50 mm measured by echocardiography, • left ventricular ejection fraction less than 40%, measured by two-dimensional echography; • 2) availability of an electrocardiogram carried out during the past 6 months in order to document the presence or the history of atrial fibrillation or flutter; • 3) availability of an electrocardiogram carried out during the past 6 months in order to document the presence or absence of normal sinus rhythm.
Treatment was initiated using tablets containing either the placebo or an amount of dronedarone hydrochloride corresponding to 400 mg of dronedarone at a rate of one tablet in the morning during or shortly after breakfast and one tablet in the evening during or shortly after dinner.
The anticipated duration of the treatment was variable according to the time at which each patient was included in the study, and could range from a minimum of 12 months for the last patient included up to a maximum corresponding to the entire duration of the study (12 months+duration of inclusion), i.e. approximately 30 months for the first patients included.
The potassium concentration-modulating effect is clearly documented in the study by virtue of the results of analyses of regular blood samples taken throughout the duration of the study in the context of the monitoring of vital parameters.
The variations in potassium (in mmol/l) between the first and the last administration of the medicament of the study are included in FIG. 1, in which B signifies basal level, D signifies day and M signifies month.
The number of patients with hypokalaemia was compared using Fischer's exact test. Hypokalaemia is defined as a concentration in potassium ion [K+] below 3 mmol/L.

[1] = among 2255 treated patients with a potassium measurement, from randomization until last administration

SMILES | number of patients with hypokalaemia ([K+] below 3 mmol/L) [1] | proportion of patients with hypokalaemia ([K+] below 3 mmol/L) [1] | change in blood potassium level (analysis of covariance, taking into account the starting value) (compared to placebo, after the 24th month, 400 mg dronedarone twice daily, p<0.0001) | reduction in the risk of sudden death (hypertensive patients) | reduction in the risk of sudden death compared with the placebo (patients not taking diuretics) | reduction in the risk of sudden death compared with the placebo (patients on diuretics) | reduction in the risk of sudden death (patients who were not hypertensive)
CCCCc1oc2ccc(NS(C)(=O)=O)cc2c1C(=O)c1ccc(OCCCN(CCCC)CCCC)cc1 [dronedarone hydrochloride] | 14 patients | 0.6% | – | – | – | – | –
CCCCc1oc2ccc(NS(C)(=O)=O)cc2c1C(=O)c1ccc(OCCCN(CCCC)CCCC)cc1 [dronedarone, 2-n-Butyl-3-[4-(3-di-n-butylaminopropoxy)benzoyl]-5-methylsulphonamidobenzofuran] | – | – | significant difference in favour of dronedarone | 62% | 34% | 70.4% | 45.5%
